How the values were obtained:
[1] = Cell growth assay (WST-8) (Compounds B1-B278); assay type: cell-based; conditions: 96 h; T47D cell line; WST-8, 4 days; read-out: Cell Growth Inhibition in T47D cell line IC50
Procedure: Cell Growth Assay. The cells are seeded at certain concentration (e.g., at 1500/well) in multi-well plates overnight. Cells are subsequently treated with the compounds. A certain period of time (e.g., 4 days) after the compound treatment, 10% WST-8 reagent is added to the culture medium and incubate under certain condiction (e.g., in a CO2 incubator at 37° C. for 2.5 hours). The absorbance is measured on each sample using a microplate reader at certain wavelength (e.g., 450 nm). The relative absorbance is calculated against the vehicle control from three individually repeats.
Cell Growth Assay. The cells were seeded at 1500/well in 96 well plates overnight. One day after the seeding, they were treated with indicated doses of compounds respectively. 4 days after the compound treatment, 10% WST-8 reagent was added to the culture medium and incubate in a CO2 incubator at 37° C. for 2.5 hours. Before reading, the plate was mixed gently on an orbital shaker for one minute to ensure homogeneous distribution of color. The absorbance was measured of each sample using a microplate reader at a wavelength of 450 nm. The relative absorbance was calculated against the vehicle control from three individually repeats.

ER = ER (Homo sapiens (Human), UniProt P03372); assay: In-cell western blot analysis of relative ER percentage (Compounds B1-B278); assay type: cell-based; conditions: ER degradation, 16 hours, read-out: ICW DC50
Sequence of ER (P03372 whole entry): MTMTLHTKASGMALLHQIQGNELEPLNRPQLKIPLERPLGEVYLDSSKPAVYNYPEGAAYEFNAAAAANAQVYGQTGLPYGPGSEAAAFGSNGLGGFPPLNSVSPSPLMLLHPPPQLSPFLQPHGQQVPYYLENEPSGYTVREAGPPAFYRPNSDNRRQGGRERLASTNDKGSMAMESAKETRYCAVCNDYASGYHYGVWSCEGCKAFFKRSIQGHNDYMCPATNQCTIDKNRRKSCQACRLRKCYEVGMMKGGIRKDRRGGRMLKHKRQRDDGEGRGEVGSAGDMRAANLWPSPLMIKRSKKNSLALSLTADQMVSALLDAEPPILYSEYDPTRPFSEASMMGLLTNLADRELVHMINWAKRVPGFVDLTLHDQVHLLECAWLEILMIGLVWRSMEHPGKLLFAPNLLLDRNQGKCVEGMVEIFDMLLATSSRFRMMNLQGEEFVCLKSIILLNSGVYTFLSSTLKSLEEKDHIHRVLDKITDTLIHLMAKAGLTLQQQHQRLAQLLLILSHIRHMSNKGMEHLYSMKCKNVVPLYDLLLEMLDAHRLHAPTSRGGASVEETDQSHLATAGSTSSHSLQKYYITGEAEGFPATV
Procedure: In-cell western blot analysis. Cells are seeded in multi-well plates (e.g., at 40,000 or 10,000 cells/well). Diluted compounds at certain concentration are added (final 0.5% DMSO) and cells are incubated for […] (e.g., 16 hours). Formaldehyde (e.g., PBS:FA=9:1) is added and followed by washing with PBS. The cells are blocked with Licor blocking buffer (Li-Cor). The relative ER percentage in treated cells are obtained by comparing the values of treated wells to those in untreated and DMSO-treated wells as 100%.
In-cell western blot analysis. a. seed cells in black-sided/clear bottom 96- or 384-well plates at 40,000 or 10,000 cells/well, overnight; b. add diluted compounds (final 0.5% DMSO), 16 hours. 16 h later, remove medium, add 100 μL or 25 μL of 3.7-4.0% formaldehyde (PBS:FA=9:1), RT 20 min, no shaking; c. wash with PBS, and permeabilized with 100 μL or 25 μL/well of 1×PBS+0.1% Triton X-100 10 minutes; d. block with 100 μL or 25 μL Licor blocking buffer (Li-Cor), RT 1 h, moderate shaking; d. Add 100 μL or 25 μL of anti-ER (cs-8644, 1:500-1,000)+GAPDH(Millipore MAB374, 1:1000) in Block+0.05% Tween 20. RT 2 h, gentle shaking. Negative control: cells plus secondary antibodies (no primary antibodies); e. wash×4 with PBS +0.05-0.1% Tween 20, gentel shaking; f. anti-rabbit-680 and anti-mouse-800 (both 1:1000 in LiCor block +0.05% Tween20, RT 1 h, gentle shaking, no light. LI-COR: 0.2% to reduce background; g. wash×4 with PBS+0.05% Tween 20, gental shaking; h. add 100 μL or 25 μL of PBS to each well and read on CLX plate reader. The relative ER percentage in treated cells were obtained by comparing the values of treated wells to those in untreated and DMSO-treated wells as 100%.

| SMILES | IC50 [1] [nM] | DC50 (ER) [nM] |
| --- | --- | --- |
| C[C@@H]1Cc2c([nH]c3ccccc23)[C@@H](c2cnc(N3CCC(OCCN4CCN5c6cc7c(cc6OC[C@@H]5C4)C(=O)N([C@@H]4CCC(=O)NC4=O)C7)CC3)nc2)N1CC(F)F [Compound B123, (R)-3-((S)-3-(2-((1-(5-((1R,3R)-2-(2,2-difluoroethyl)-3-methyl-2,3,4,9-tetrahydro-1H-pyrido[3,4-b]indol-1-yl)pyrimidin-2-yl)piperidin-4-yl)oxy)ethyl)-8-oxo-1,2,3,4,4a,5,8,10-octahydro-9H-pyrazino[1′,2′:4,5][1,4]oxazino[2,3-f]isoindol-9-yl)piperidine-2,6-dione] | 1 to 10 | 10 to 100 |
| C[C@@H]1Cc2c([nH]c3ccccc23)[C@@H](c2cnc(N3CC4(CCC(CN5CCN6c7ccc8c(c7N(C)C[C@@H]6C5)CN(C5CCC(=O)NC5=O)C8=O)CC4)C3)nc2)N1CC(F)F (stereo partly drawn) [Compound B125, 3-((S)-7-((2-(5-((1R,3R)-2-(2,2-difluoroethyl)-3-methyl-2,3,4,9-tetrahydro-1H-pyrido[3,4-b]indol-1-yl)pyrimidin-2-yl)-2-azaspiro[3.5]nonan-7-yl)methyl)-4-methyl-1-oxo-3,4,5,5a,6,7,8,9-octahydropyrazino[1,2-a]pyrrolo[3,4-f]quinoxalin-2(1H)-yl)piperidine-2,6-dione] | > 10 | 10 to 100 |
| C[C@@H]1Cc2c([nH]c3ccccc23)[C@@H](c2cnc(N3CCC4(CC3)CC(CN3CCN5c6ccc7c(c6N(C)C[C@@H]5C3)CN(C3CCC(=O)NC3=O)C7=O)C4)nc2)N1CC(F)F (stereo partly drawn) [Compound B126, 3-((S)-7-((7-(5-((1R,3R)-2-(2,2-difluoroethyl)-3-methyl-2,3,4,9-tetrahydro-1H-pyrido[3,4-b]indol-1-yl)pyrimidin-2-yl)-7-azaspiro[3.5]nonan-2-yl)methyl)-4-methyl-1-oxo-3,4,5,5a,6,7,8,9-octahydropyrazino[1,2-a]pyrrolo[3,4-f]quinoxalin-2(1H)-yl)piperidine-2,6-dione] | > 10 | 10 to 100 |
| C[C@@H]1Cc2c([nH]c3ccccc23)[C@@H](c2cnc(N3CCC(CN4CCC5(CCOc6c5ccc5c6CN(C6CCC(=O)NC6=O)C5=O)CC4)CC3)nc2)N1CC(F)F (stereo partly drawn) [Compound B127, 3-(1-((1-(5-((1R,3R)-2-(2,2-difluoroethyl)-3-methyl-2,3,4,9-tetrahydro-1H-pyrido[3,4-b]indol-1-yl)pyrimidin-2-yl)piperidin-4-yl)methyl)-7′-oxo-2′,3′,7′,9′-tetrahydro-8′H-spiro[piperidine-4,4′-pyrano[2,3-e]isoindol]-8′-yl)piperidine-2,6-dione] | 1 to 10 | 10 to 100 |
| COc1cc(N2CCC3(CCN(C(=O)CN4Cc5cc6c(cc5C4)C(=O)N(C4CCC(=O)NC4=O)C6=O)CC3)CC2)ccc1[C@@H]1c2[nH]c3ccccc3c2C[C@@H](C)N1CC(F)F (stereo partly drawn) [Compound B128, 6-(2-(9-(4-((1R,3R)-2-(2,2-difluoroethyl)-3-methyl-2,3,4,9-tetrahydro-1H-pyrido[3,4-b]indol-1-yl)-3-methoxyphenyl)-3,9-diazaspiro[5.5]undecan-3-yl)-2-oxoethyl)-2-(2,6-dioxopiperidin-3-yl)-6,7-dihydropyrrolo[3,4-f]isoindole-1,3(2H,5H)-dione] | 1 to 10 | < 10 |
| COc1cc(N2CC3(CCC(CN4CCC5(CC4)COc4c5ccc5c4CN(C4CCC(=O)NC4=O)C5=O)CC3)C2)ccc1[C@@H]1c2[nH]c3ccccc3c2C[C@@H](C)N1CC(F)F (stereo partly drawn) [Compound B129, 3-(1′-((2-(4-((1R,3R)-2-(2,2-difluoroethyl)-3-methyl-2,3,4,9-tetrahydro-1H-pyrido[3,4-b]indol-1-yl)-3-methoxyphenyl)-2-azaspiro[3.5]nonan-7-yl)methyl)-6-oxo-6,8-dihydro-2H,7H-spiro[furo[2,3-e]isoindole-3,4′-piperidin]-7-yl)piperidine-2,6-dione] | < 1 | 10 to 100 |

Reference: patent US20260007681A1, “INDOLE DERIVATIVES AS ESTROGEN RECEPTOR DEGRADERS” (REGENTS OF THE UNIVERSITY OF MICHIGAN, priority 2022, published 2026)
